The results in this text go back to US10745382B2 (BRISTOL-MYERS SQUIBB COMPANY, priority 2015, dated 2020).

SMILES strings stand for the structures.

The target of the first assay is T1, PD-1/PD-L1 (Homo sapiens, UniProt Q9NZQ7).
T1 construct: made in house; host or cells: HEK293T
T1 sequence (Q9NZQ7 with tags, fused parts or gaps): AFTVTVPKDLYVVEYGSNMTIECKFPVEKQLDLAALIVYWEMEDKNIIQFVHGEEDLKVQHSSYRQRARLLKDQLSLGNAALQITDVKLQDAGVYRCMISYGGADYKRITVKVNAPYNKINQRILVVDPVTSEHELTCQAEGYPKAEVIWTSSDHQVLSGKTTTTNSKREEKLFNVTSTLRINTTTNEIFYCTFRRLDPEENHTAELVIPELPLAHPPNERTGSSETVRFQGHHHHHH
The assay can be described thus: PD-1/PD-L1 Homogenous Time-Resolved Fluorescence (HTRF) binding assay. The settings on record: PD-L1-His 10 nM, PD-1-Ig 20 nM; numeric IC50; read-out: Range or IC50. In short, it runs like this: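 Binding measured in dPBS with 0.1% BSA and 0.05% Tween-20, detected by HTRF with europium cryptate anti-Ig (1 nM final) and APC anti-His (20 nM final) added over the binding reaction. Counter-assays used human PD-1-Ig/PD-L2-His (20 and 5 nM) and CD80-His/PD-L1-Ig (100 and 10 nM).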
For orientation: In TR-FRET formats the signal depends on donor and acceptor labels being close together.
Regarding `Cc1c(COc2cc(OCc3cncc(C#N)c3)c(C(C)NC(CO)CO)cc2Cl)cccc1-c1cccc(OCCCN2CC[C@@H](O)C2)c1C` (stereo partly drawn) [Example 4137, 5-((4-chloro-2-(1-((1,3-dihydroxypropan-2-yl)amino)ethyl)-5-((3′-(3-((R)-3-hydroxypyrrolidin-1-yl)propoxy)-2,2′-dimethyl-[1,1′-biphenyl]-3-yl)methoxy)phenoxy)methyl)nicotinonitrile], the IC50 was 3 nM.

Staying with this assay, now noted: PD-L1-His 10 nM, PD-1-Ig 20 nM; value given as range class; read-out: Range or IC50.
Turning to `Cc1c(COCCN2CC[C@@H](O)C2)cccc1-c1cccc(COc2cc(OCc3cncc(C#N)c3)c(CNC3(C(=O)O)CC3)cc2Cl)c1C` [Example 4124, (R)-1-((5-chloro-2-((5-cyanopyridin-3-yl)methoxy)-4-((3′-((2-(3-hydroxypyrrolidin-1-yl)ethoxy)methyl)-2,2′-dimethyl-[1,1′-biphenyl]-3-yl)methoxy)benzyl)amino)cyclopropane-1-carboxylic Acid], the IC50 was 0.21 to 10 nM.
Turning to `Cc1c(COCCN2CC[C@@H](O)C2)cccc1-c1cccc(COc2cc(OCc3cncc(C#N)c3)c(CNC(CO)(CO)CO)cc2Cl)c1C` [Example 4125, (R)-5-((4-chloro-2-(((1,3-dihydroxy-2-(hydroxymethyl)propan-2-yl)amino)methyl)-5-((3′-((2-(3-hydroxypyrrolidin-1-yl)ethoxy)methyl)-2,2′-dimethyl-[1,1′-biphenyl]-3-yl)methoxy)phenoxy)methyl)nicotinonitrile], the IC50 lay in the range of 0.21 to 10 nM.
The same measure, in the same setting: under `Cc1c(COCCN2CC[C@@H](O)C2)cccc1-c1cccc(COc2cc(OCc3cncc(C#N)c3)c(CN3CCCC[C@H]3C(=O)O)cc2Cl)c1C` [Example 4126, (S)-1-(5-chloro-2-((5-cyanopyridin-3-yl)methoxy)-4-((3′-((2-((R)-3-hydroxypyrrolidin-1-yl)ethoxy)methyl)-2,2′-dimethyl-[1,1′-biphenyl]-3-yl)methoxy)benzyl)piperidine-2-carboxylic Acid] stands 0.21 to 10 nM.
Turning to `Cc1c(COCCN2CC[C@@H](O)C2)cccc1-c1cccc(COc2cc(OCc3cncc(C#N)c3)c(CN(C)C(CO)CO)cc2Cl)c1C` [Example 4127, (R)-5-((4-chloro-2-(((1,3-dihydroxypropan-2-yl)(methyl)amino)methyl)-5-((3′-((2-(3-hydroxypyrrolidin-1-yl)ethoxy)methyl)-2,2′-dimethyl-[1,1′-biphenyl]-3-yl)methoxy)phenoxy)methyl)nicotinonitrile], the IC50 lay within 0.21 to 10 nM.
The same measure, in the same setting: under `Cc1c(COCCN2CC[C@@H](O)C2)cccc1-c1cccc(COc2cc(OCc3cncc(C#N)c3)c(CN(C)C(C)(CO)CO)cc2Cl)c1C` [Example 4128, (R)-5-((4-chloro-2-(((1,3-dihydroxy-2-methylpropan-2-yl)(methyl)amino)methyl)-5-((3′-((2-(3-hydroxypyrrolidin-1-yl)ethoxy)methyl)-2,2′-dimethyl-[1,1′-biphenyl]-3-yl)methoxy)phenoxy)methyl)nicotinonitrile] stands 0.21 to 10 nM; under `Cc1c(COCCN2CC[C@@H](O)C2)cccc1-c1cccc(COc2cc(OCc3cncc(C#N)c3)c(CN(C)C3(C(=O)O)CC3)cc2Cl)c1C` [Example 4129, (R)-1-((5-chloro-2-((5-cyanopyridin-3-yl)methoxy)-4-((3′-((2-(3-hydroxypyrrolidin-1-yl)ethoxy)methyl)-2,2′-dimethyl-[1,1′-biphenyl]-3-yl)methoxy)benzyl)(methyl)amino)cyclopropane-1-carboxylic Acid], 0.21 to 10 nM; under `Cc1c(COCCN2CC[C@@H](O)C2)cccc1-c1cccc(COc2cc(OCc3cncc(C#N)c3)c(CN(C)[C@@H](CO)C(=O)O)cc2Cl)c1C` [Example 4130, N-(5-chloro-2-((5-cyanopyridin-3-yl)methoxy)-4-((3′-((2-((R)-3-hydroxypyrrolidin-1-yl)ethoxy)methyl)-2,2′-dimethyl-[1,1′-biphenyl]-3-yl)methoxy)benzyl)-N-methyl-L-serine], 0.21 to 10 nM.
Regarding `Cc1c(COCCN2CC[C@@H](O)C2)cccc1-c1cccc(COc2cc(OCc3cncc(C#N)c3)c(CNC(C)(CO)CO)cc2Cl)c1C` [Example 4131, (R)-5-((4-chloro-2-(((1,3-dihydroxy-2-methylpropan-2-yl)amino)methyl)-5-((3′-((2-(3-hydroxypyrrolidin-1-yl)ethoxy)methyl)-2,2′-dimethyl-[1,1′-biphenyl]-3-yl)methoxy)phenoxy)methyl)nicotinonitrile], the IC50 was 0.21 to 10 nM.
Regarding `Cc1c(COc2cc(OCc3cncc(C#N)c3)c(CN(C)[C@@H](C)C(=O)O)cc2Cl)cccc1-c1cccc(OCCCN2CC[C@@H](O)C2)c1C` [Example 4132, N-(5-chloro-2-((5-cyanopyridin-3-yl)methoxy)-4-((3′-(3 ((R)-3-hydroxypyrrolidin-1-yl)propoxy)-2,2′-dimethyl-[1,1′-biphenyl]-3-yl)methoxy)benzyl)-N-methyl-L-alanine], the IC50 lay in the range of 0.21 to 10 nM.
On the same count and under the same terms, under `CC[C@@H](C(=O)O)N(C)Cc1cc(Cl)c(OCc2cccc(-c3cccc(OCCCN4CC[C@@H](O)C4)c3C)c2C)cc1OCc1cncc(C#N)c1` [Example 4133, (S)-2-((5-chloro-2-((5-cyanopyridin-3-yl)methoxy)-4-((3′-(3-((R)-3-hydroxypyrrolidin-1-yl)propoxy)-2,2′-dimethyl-[1,1′-biphenyl]-3-yl)methoxy)benzyl)(methyl)amino)butanoic Acid] stands 0.21 to 10 nM; under `Cc1c(COc2cc(OCc3cncc(C#N)c3)c(CN(C)C3(C(=O)O)CC3)cc2Cl)cccc1-c1cccc(OCCCN2CC[C@@H](O)C2)c1C` [Example 4134, (R)-1-((5-chloro-2-((5-cyanopyridin-3-yl)methoxy)-4-((3′-(3-(3-hydroxypyrrolidin-1-yl)propoxy)-2,2′-dimethyl-[1,1′-biphenyl]-3-yl)methoxy)benzyl)(methyl)amino)cyclopropane-1-carboxylic Acid], 0.21 to 10 nM.
Consider `Cc1c(COc2cc(OCc3cncc(C#N)c3)c(CN(C)[C@@H](CCO)C(=O)O)cc2Cl)cccc1-c1cccc(OCCCN2CC[C@@H](O)C2)c1C` [Example 4135, N-(5-chloro-2-((5-cyanopyridin-3-yl)methoxy)-4-((3′-(3-((R)-3-hydroxypyrrolidin-1-yl)propoxy)-2,2′-dimethyl-[1,1′-biphenyl]-3-yl)methoxy)benzyl)-N-methyl-L-homoserine], for which the IC50 fell in the range of 0.21 to 10 nM.
Take `Cc1c(COc2cc(OCc3cncc(C#N)c3)c(CN(C)[C@@H](CO)C(=O)O)cc2Cl)cccc1-c1cccc(OCCCN2CC[C@@H](O)C2)c1C` [Example 4136, N-(5-chloro-2-((5-cyanopyridin-3-yl)methoxy)-4-((3′-(3-((R)-3-hydroxypyrrolidin-1-yl)propoxy)-2,2′-dimethyl-[1,1′-biphenyl]-3-yl)methoxy)benzyl)-N-methyl-L-serine]: the IC50 fell in the range of 0.21 to 10 nM.
Still for that read-out and setting: under `Cc1c(COc2cc(OCc3cncc(C#N)c3)c(C(C)N3C[C@H](O)C[C@H]3C(=O)O)cc2Cl)cccc1-c1cccc(OCCCN2CC[C@@H](O)C2)c1C` (stereo partly drawn) [Example 4138, (2S,4R)-1-(1-(5-chloro-2-((5-cyanopyridin-3-yl)methoxy)-4-((3′-(3-((R)-3-hydroxypyrrolidin-1-yl)propoxy)-2,2′-dimethyl-[1,1′-biphenyl]-3-yl)methoxy)phenyl)ethyl)-4-hydroxypyrrolidine-2-carboxylic Acid] stands 0.21 to 10 nM; under `Cc1c(COc2cc(OCc3cncc(C#N)c3)c(C(C)N(C)[C@@H](CO)C(=O)O)cc2Cl)cccc1-c1cccc(OCCCN2CC[C@@H](O)C2)c1C` (stereo partly drawn) [Example 4139, N-(1-(5-chloro-2-((5-cyanopyridin-3-yl)methoxy)-4-((3′-(3-((R)-3-hydroxypyrrolidin-1-yl)propoxy)-2,2′-dimethyl-[1,1′-biphenyl]-3-yl)methoxy)phenyl)ethyl)-N-methyl-L-serine], 0.21 to 10 nM; under `Cc1c(COc2cc(OCc3cncc(C#N)c3)c(C(C)N(C)C(CO)CO)cc2Cl)cccc1-c1cccc(OCCCN2CC[C@@H](O)C2)c1C` (stereo partly drawn) [Example 4140, 5-((4-chloro-2-(1-((1,3-dihydroxypropan-2-yl)(methyl)amino)ethyl)-5-((3′-(3-((R)-3-hydroxypyrrolidin-1-yl)propoxy)-2,2′-dimethyl-[1,1′-biphenyl]-3-yl)methoxy)phenoxy)methyl)nicotinonitrile], 0.21 to 10 nM.
As to `Cc1c(COc2cc(OCc3cncc(C#N)c3)c(C(C)N[C@@H](CO)C(=O)O)cc2Cl)cccc1-c1cccc(OCCCN2CC[C@@H](O)C2)c1C` (stereo partly drawn) [Example 4141, (1-(5-chloro-2-((5-cyanopyridin-3-yl)methoxy)-4-((3′-(3-((R)-3-hydroxypyrrolidin-1-yl)propoxy)-2,2′-dimethyl-[1,1′-biphenyl]-3-yl)methoxy)phenyl)ethyl)-L-serine], the IC50 fell in the range of 0.21 to 10 nM.
Regarding `Cc1c(COc2cc(OCc3cncc(C#N)c3)c(CNCC(=O)O)cc2Cl)cccc1-c1cccc(OCCCN2CC[C@@H](O)C2)c1C` [Example 4147, (R)-(5-chloro-2-((5-cyanopyridin-3-yl)methoxy)-4-((3′-(3-(3-hydroxypyrrolidin-1-yl)propoxy)-2,2′-dimethyl-[1,1′-biphenyl]-3-yl)methoxy)benzyl)glycine], the IC50 fell in the range of 0.21 to 10 nM.
Still for that read-out and setting: under `Cc1c(COc2cc(OCc3cncc(C#N)c3)c(CN[C@H](C(=O)O)[C@@H](C)O)cc2Cl)cccc1-c1cccc(OCCCN2CC[C@@H](O)C2)c1C` [Example 4148, (5-chloro-2-((5-cyanopyridin-3-yl)methoxy)-4-((3′-(3-((R)-3-hydroxypyrrolidin-1-yl)propoxy)-2,2′-dimethyl-[1,1′-biphenyl]-3-yl)methoxy)benzyl)-L-threonine] stands 0.21 to 10 nM; under `Cc1c(COc2cc(OCc3cncc(C#N)c3)c(CNCCC(=O)O)cc2Cl)cccc1-c1cccc(OCCCN2CC[C@@H](O)C2)c1C` [Example 4149, (R)-3-((5-chloro-2-((5-cyanopyridin-3-yl)methoxy)-4-((3′-(3-(3-hydroxypyrrolidin-1-yl)propoxy)-2,2′-dimethyl-[1,1′-biphenyl]-3-yl)methoxy)benzyl)amino)propanoic Acid], 0.21 to 10 nM.

By IC50 is commonly meant the concentration at which inhibition is half-maximal.
